Reference: ChEMBL document CHEMBL5550214, “Expanding Structure-Activity Relationships of Human Urotensin II Peptide Analogues: A Proposed Key Role of the N-Terminal Region for Novel Urotensin II Receptor Modulators” (J Med Chem, 2024)
The source made the active and inactive calls. The calls are words filed in the database; no cut-off is given here. Where a SMILES comes first, the peptide text is derived from it. Bridges are numbered along the chain shown (N, C = ends). [ ]: non-standard residue; d: D form. hSer = N[C@@H](CCO)C(=O)O; Dab = NCC[C@H](N)C(=O)O

Key:
[1] = molecular target: T1, Urotensin-2 receptor (Homo sapiens) (UniProt Q9UKP6); test: Modulation of human UTR stably expressed in HEK293 cells assessed as increase in Ca2+ level at 0.1 to 100 nM by Fura 2-AM dye based calcium mobilization assay; type: functional, cell-based; details: dose 0.1-100 nM
T1 sequence (whole entry): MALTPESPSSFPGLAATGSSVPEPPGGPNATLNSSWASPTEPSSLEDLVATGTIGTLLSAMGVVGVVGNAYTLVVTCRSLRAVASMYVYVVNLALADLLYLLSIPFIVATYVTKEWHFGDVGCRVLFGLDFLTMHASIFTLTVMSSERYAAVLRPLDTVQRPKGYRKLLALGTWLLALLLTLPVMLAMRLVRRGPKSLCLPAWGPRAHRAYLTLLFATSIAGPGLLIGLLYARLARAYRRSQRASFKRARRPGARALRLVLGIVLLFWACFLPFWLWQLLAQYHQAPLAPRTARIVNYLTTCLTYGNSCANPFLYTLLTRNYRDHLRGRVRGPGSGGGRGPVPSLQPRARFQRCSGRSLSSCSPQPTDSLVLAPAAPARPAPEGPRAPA

Aortic ring [2] = test: Induction of contraction in Albino Wistar rat aortic ring at 1 to 30 nM; type: functional, tissue-based; details: Aorta, dose 1-30 nM
Aortic ring [3] = test: Induction of contraction in Albino Wistar rat aortic ring assessed as Emax of hU-II at 1 uM incubated for 30 mins in presence of hU-II (reference value: 224.8 +/- 11.71 dyne/mg); type: functional, Aorta; details: 0.5 h
Aortic ring [4] = test: Induction of contraction in Albino Wistar rat aortic ring assessed as Emax of hU-II at 0.1 uM incubated for 30 mins in presence of hU-II (reference value: 251.4 +/- 15.43 dyne/mg); type: functional, Aorta; details: 0.5 h
Aortic ring [5] = test: Induction of contraction in Albino Wistar rat aortic ring assessed as Emax of hU-II at 10 uM incubated for 30 mins in presence of hU-II (reference value: 214.5 +/- 10.51 dyne/mg); type: functional, Aorta; details: 0.5 h
Aortic ring [6] = test: Induction of contraction in Albino Wistar rat aortic ring assessed as Emax of U-II(4-11) at 0.1 uM incubated for 30 mins in presence of U-II(4-11) (reference value: 159.8 +/- 7.39 dyne/mg); type: functional, Aorta; details: 0.5 h
Aortic ring [7] = test: Induction of contraction in Albino Wistar rat aortic ring assessed as Emax of U-II(4-11) at 1 uM incubated for 30 mins in presence of U-II(4-11) (reference value: 159.8 +/- 7.3 dyne/mg); type: functional, Aorta; details: 0.5 h
Aortic ring [8] = test: Induction of contraction in Albino Wistar rat aortic ring assessed as Emax of U-II(4-11) at 10 uM incubated for 30 mins in presence of U-II(4-11) (reference value: 152.4 +/- 5.1 dyne/mg); type: functional, Aorta; details: 0.5 h
Aortic ring [9] = test: Induction of contraction in Albino Wistar rat aortic ring assessed as Emax of [Ala1]U-II at 10 uM incubated for 30 mins in presence of [Ala1]U-II (reference value: 308.1 +/- 21.4 dyne/mg); type: functional, Aorta; details: 0.5 h
Aortic ring [10] = test: Induction of contraction in Albino Wistar rat aortic ring assessed as Emax of [Ala1]U-II at 1 uM incubated for 30 mins in presence of [Ala1]U-II (reference value: 220.3 +/- 17.48 dyne/mg); type: functional, Aorta; details: 0.5 h
Aortic ring [11] = test: Induction of contraction in Albino Wistar rat aortic ring assessed as Emax of [Ala1]U-II at 0.1 uM incubated for 30 mins in presence of [Ala1]U-II (reference value: 323 +/- 30.45 dyne/mg); type: functional, Aorta; details: 0.5 h
Aortic ring [12] = test: Induction of contraction in Albino Wistar rat aortic ring at 1 to 30 nM relative to control; type: functional, Aorta; details: dose 1-30 nM
[13] = molecular target: T1, Urotensin-2 receptor (Homo sapiens); test: Modulation of human UTR stably expressed in HEK293 cells assessed as increase in Ca2+ level at 0.1 nM by Fura 2-AM dye based calcium mobilization assay; type: functional, cell-based; details: filed as modulator
Aortic ring [14] = test: Induction of contraction in Albino Wistar rat aortic ring assessed as Emax of hU-II at 0.1 uM incubated for 30 mins in presence of hU-II (reference value: 224.8 +/- 11.71 dyne/mg); type: functional, Aorta; details: 0.5 h
Aortic ring [15] = test: Induction of contraction in Albino Wistar rat aortic ring assessed as Emax of hU-II at 10 uM incubated for 30 mins in presence of hU-II (reference value: 238.4 +/- 9.53 dyne/mg); type: functional, Aorta; details: 0.5 h
Aortic ring [16] = test: Induction of contraction in Albino Wistar rat aortic ring assessed as Emax of hU-II at 1 uM incubated for 30 mins in presence of hU-II (reference value: 214.5 +/- 10.51 dyne/mg); type: functional, Aorta; details: 0.5 h
Aortic ring [17] = test: Induction of contraction in Albino Wistar rat aortic ring assessed as Emax of U-II(4-11) at 1 uM incubated for 30 mins in presence of U-II(4-11) (reference value: 159.8 +/- 7.39 dyne/mg); type: functional, Aorta; details: 0.5 h
Aortic ring [18] = test: Induction of contraction in Albino Wistar rat aortic ring assessed as Emax of U-II(4-11) at 10 uM incubated for 30 mins in presence of U-II(4-11) (reference value: 159.8 +/- 7.3 dyne/mg); type: functional, Aorta; details: 0.5 h
Aortic ring [19] = test: Induction of contraction in Albino Wistar rat aortic ring assessed as Emax of U-II(4-11) at 0.1 uM incubated for 30 mins in presence of U-II(4-11) (reference value: 242.6 +/- 20.63 dyne/mg); type: functional, Aorta; details: 0.5 h
Aortic ring [20] = test: Induction of contraction in Albino Wistar rat aortic ring assessed as Emax of [Ala1]U-II at 1 uM incubated for 30 mins in presence of [Ala1]U-II (reference value: 308.1 +/- 21.4 dyne/mg); type: functional, Aorta; details: 0.5 h
Aortic ring [21] = test: Induction of contraction in Albino Wistar rat aortic ring assessed as Emax of [Ala1]U-II at 0.1 uM incubated for 30 mins in presence of [Ala1]U-II (reference value: 220.3 +/- 17.48 dyne/mg); type: functional, Aorta; details: 0.5 h
Aortic ring [22] = test: Induction of contraction in Albino Wistar rat aortic ring assessed as Emax of [Ala1]U-II at 10 uM incubated for 30 mins in presence of [Ala1]U-II (reference value: 153.3 +/- 10.75 dyne/mg); type: functional, Aorta; details: 0.5 h

Compound: CC(C)[C@H](NC(=O)[C@@H]1CSSC(C)(C)[C@H](NC(=O)[C@H](CC(=O)O)NC(=O)[C@@H]2CCCN2C(=O)[C@@H](NC(=O)[C@@H](N)CCC(N)=O)[C@@H](C)O)C(=O)N[C@@H](Cc2ccccc2)C(=O)N[C@H](Cc2c[nH]c3ccccc23)C(=O)N[C@@H](CCCN)C(=O)N[C@@H](Cc2ccc(O)cc2)C(=O)N1)C(=O)O
- Activity ([1]; filed as modulator): Active
- Activity (Aortic ring [2]): inactive
- Emax (Aortic ring [3]): 336.6 dyn/mg
- Emax (Aortic ring [4]): 507.7 dyn/mg
- Emax (Aortic ring [5]): 245.7 dyn/mg
- Emax (Aortic ring [6]): 265.4 dyn/mg
- Emax (Aortic ring [7]): 215.7 dyn/mg
- Emax (Aortic ring [8]): 164.2 dyn/mg
- Emax (Aortic ring [9]): 218.8 dyn/mg
- Emax (Aortic ring [10]): 295.9 dyn/mg
- Emax (Aortic ring [11]): 46.4 dyn/mg

Compound: CC(C)[C@H](NC(=O)[C@@H]1CSSC[C@H](NC(=O)[C@H](CC(=O)O)NC(=O)[C@@H]2CCCN2C(=O)[C@@H](NC(=O)[C@@H](N)CCC(=O)O)[C@@H](C)O)C(=O)N[C@@H](Cc2ccccc2)C(=O)N[C@@H](Cc2c[nH]c3ccccc23)C(=O)N[C@@H](CCCCN)C(=O)N[C@@H](Cc2ccc(O)cc2)C(=O)N1)C(=O)O [UROTENSIN-II]
- Emax (Aortic ring [12]): 237.2 dyn/mg

Compound: CC(C)[C@H](NC(=O)[C@@H]1CSSC[C@H](NC(=O)[C@H](CC(=O)O)NC(=O)[C@@H]2CCCN2C(=O)[C@@H](NC(=O)[C@@H](N)CCO)[C@@H](C)O)C(=O)N[C@@H](Cc2ccccc2)C(=O)N[C@@H](Cc2c[nH]c3ccccc23)C(=O)N[C@@H](CCCCN)C(=O)N[C@@H](Cc2ccc(O)cc2)C(=O)N1)C(=O)O (H-[hSer]TPDCFWKYCV-OH; disulfide 5-10)
- Activity [1]: inactive
- Activity [13]: Active
- Emax (Aortic ring [12]): 144.2 dyn/mg

Compound: CC(C)[C@H](NC(=O)[C@@H]1CSSC[C@H](NC(=O)[C@H](CC(=O)O)NC(=O)[C@@H]2CCCN2C(=O)[C@@H](NC(=O)[C@@H](N)CCN)[C@@H](C)O)C(=O)N[C@@H](Cc2ccccc2)C(=O)N[C@@H](Cc2c[nH]c3ccccc23)C(=O)N[C@@H](CCCCN)C(=O)N[C@@H](Cc2ccc(O)cc2)C(=O)N1)C(=O)O (H-[Dab]TPDCFWKYCV-OH; disulfide 5-10)
- Emax (Aortic ring [12]): 97.78 dyn/mg

Compound: CC(C)[C@H](NC(=O)[C@@H]1CSSC(C)(C)[C@H](NC(=O)[C@H](CC(=O)O)NC(=O)[C@@H]2CCCN2C(=O)[C@@H](NC(=O)[C@H](C)N)[C@@H](C)O)C(=O)N[C@@H](Cc2ccccc2)C(=O)N[C@H](Cc2c[nH]c3ccccc23)C(=O)N[C@@H](CCCN)C(=O)N[C@@H](Cc2ccc(O)cc2)C(=O)N1)C(=O)O
- Activity ([1]; filed as modulator): Active
- Activity (Aortic ring [2]): inactive
- Emax (Aortic ring [14]): 264.3 dyn/mg
- Emax (Aortic ring [15]): 320.8 dyn/mg
- Emax (Aortic ring [16]): 315.6 dyn/mg
- Emax (Aortic ring [17]): 248.2 dyn/mg
- Emax (Aortic ring [18]): 541.8 dyn/mg
- Emax (Aortic ring [19]): 263 dyn/mg
- Emax (Aortic ring [20]): 121.9 dyn/mg
- Emax (Aortic ring [21]): 373.5 dyn/mg
- Emax (Aortic ring [22]): 285 dyn/mg
